Holding throughout (experiment): biochemical
Test [1] concerns the target T1, panel of 374 wild-type kinases (Homo sapiens, UniProt O15146).
T1 construct: purchased Reaction Biology Corporation
T1 sequence (O15146 24-869): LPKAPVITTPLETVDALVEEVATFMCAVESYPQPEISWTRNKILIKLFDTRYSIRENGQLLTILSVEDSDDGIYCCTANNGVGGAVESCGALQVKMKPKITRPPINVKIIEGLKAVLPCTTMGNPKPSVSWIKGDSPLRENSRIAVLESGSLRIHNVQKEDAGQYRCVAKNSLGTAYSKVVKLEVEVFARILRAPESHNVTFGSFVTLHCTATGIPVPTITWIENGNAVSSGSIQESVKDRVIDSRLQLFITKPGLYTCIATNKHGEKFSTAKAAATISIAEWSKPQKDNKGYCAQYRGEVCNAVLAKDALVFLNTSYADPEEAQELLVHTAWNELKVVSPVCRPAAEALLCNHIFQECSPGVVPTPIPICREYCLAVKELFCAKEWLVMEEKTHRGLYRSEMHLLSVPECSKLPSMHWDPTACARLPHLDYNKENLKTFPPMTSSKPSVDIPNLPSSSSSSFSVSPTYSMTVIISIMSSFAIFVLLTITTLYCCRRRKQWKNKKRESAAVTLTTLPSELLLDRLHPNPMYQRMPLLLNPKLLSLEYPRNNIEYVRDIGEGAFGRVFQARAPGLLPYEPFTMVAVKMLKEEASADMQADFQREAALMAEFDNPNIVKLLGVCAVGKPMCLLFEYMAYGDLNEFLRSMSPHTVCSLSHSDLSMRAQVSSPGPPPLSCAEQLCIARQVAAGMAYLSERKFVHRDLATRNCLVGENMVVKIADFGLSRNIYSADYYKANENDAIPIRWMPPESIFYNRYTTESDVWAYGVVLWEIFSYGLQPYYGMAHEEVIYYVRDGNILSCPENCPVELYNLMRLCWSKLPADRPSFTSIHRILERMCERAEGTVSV
The following applies: read-out: % Enzyme Activity (relative to DMSO controls), MUSK.

For test [2], the target named is T2, panel of 374 wild-type kinases (Homo sapiens, UniProt O96013).
T2 construct: purchased Reaction Biology Corporation
The conditions noted are these: read-out: % Enzyme Activity (relative to DMSO controls), kinase PAK4.

Test [3] has as its target T3, panel of 374 wild-type kinases (Homo sapiens, UniProt P05771).
T3 construct: purchased Reaction Biology Corporation
The conditions noted are these: read-out: % Enzyme Activity (relative to DMSO controls), kinase PKCb1.

Test [4] addresses T4, panel of 374 wild-type kinases (Homo sapiens, UniProt P42684).
T4 construct: purchased Reaction Biology Corporation
The following applies: read-out: % Enzyme Activity (relative to DMSO controls), ABL2/ARG.

Test [5] addresses T5, panel of 374 wild-type kinases (Homo sapiens, UniProt P80192).
T5 construct: purchased Reaction Biology Corporation
The following applies: read-out: % Enzyme Activity (relative to DMSO controls), MLK1/MAP3K9.

Test [6] addresses T6, panel of 374 wild-type kinases (Homo sapiens, UniProt Q7KZI7).
T6 construct: purchased Reaction Biology Corporation
The following applies: read-out: % Enzyme Activity (relative to DMSO controls), MARK2/PAR-1Ba.

The target of test [7] is T7, panel of 374 wild-type kinases (Homo sapiens, UniProt Q92630).
T7 construct: purchased Reaction Biology Corporation
T7 sequence (Q92630 1-601): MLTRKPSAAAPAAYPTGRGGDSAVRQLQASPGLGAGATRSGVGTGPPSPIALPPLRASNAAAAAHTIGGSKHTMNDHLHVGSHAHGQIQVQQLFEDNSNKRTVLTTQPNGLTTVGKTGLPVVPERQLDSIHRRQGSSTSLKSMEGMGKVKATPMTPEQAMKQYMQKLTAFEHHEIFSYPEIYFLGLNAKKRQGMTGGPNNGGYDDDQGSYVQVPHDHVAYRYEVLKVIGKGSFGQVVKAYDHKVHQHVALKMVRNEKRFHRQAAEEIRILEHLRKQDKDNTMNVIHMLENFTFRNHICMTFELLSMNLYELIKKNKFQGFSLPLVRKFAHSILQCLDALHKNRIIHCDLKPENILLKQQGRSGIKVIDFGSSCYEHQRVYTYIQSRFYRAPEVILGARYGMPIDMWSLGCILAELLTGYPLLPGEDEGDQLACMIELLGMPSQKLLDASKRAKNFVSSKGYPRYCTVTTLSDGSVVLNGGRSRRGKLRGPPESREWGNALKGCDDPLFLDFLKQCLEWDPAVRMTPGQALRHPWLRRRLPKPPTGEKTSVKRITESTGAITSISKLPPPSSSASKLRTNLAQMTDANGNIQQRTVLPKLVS
The conditions noted are these: read-out: % Enzyme Activity (relative to DMSO controls), DYRK2.

Test [8] addresses T8, panel of 374 wild-type kinases (Homo sapiens, UniProt Q9HC98).
T8 construct: purchased Reaction Biology Corporation
The following applies: read-out: % Enzyme Activity (relative to DMSO controls), NEK6.

The target of test [9] is T9, panel of 374 wild-type kinases (Homo sapiens, UniProt Q9HCP0).
T9 construct: purchased Reaction Biology Corporation
The following applies: read-out: % Enzyme Activity (relative to DMSO controls), CK1g1.

Test [10] has as its target T10, panel of 374 wild-type kinases (Homo sapiens, UniProt Q9P0L2).
T10 construct: purchased Reaction Biology Corporation
The conditions noted are these: read-out: % Enzyme Activity (relative to DMSO controls), MARK1.

The target of test [11] is T11, panel of 374 wild-type kinases (Homo sapiens, UniProt Q9UBE8).
T11 construct: purchased Reaction Biology Corporation
T11 sequence (Q9UBE8 1-527): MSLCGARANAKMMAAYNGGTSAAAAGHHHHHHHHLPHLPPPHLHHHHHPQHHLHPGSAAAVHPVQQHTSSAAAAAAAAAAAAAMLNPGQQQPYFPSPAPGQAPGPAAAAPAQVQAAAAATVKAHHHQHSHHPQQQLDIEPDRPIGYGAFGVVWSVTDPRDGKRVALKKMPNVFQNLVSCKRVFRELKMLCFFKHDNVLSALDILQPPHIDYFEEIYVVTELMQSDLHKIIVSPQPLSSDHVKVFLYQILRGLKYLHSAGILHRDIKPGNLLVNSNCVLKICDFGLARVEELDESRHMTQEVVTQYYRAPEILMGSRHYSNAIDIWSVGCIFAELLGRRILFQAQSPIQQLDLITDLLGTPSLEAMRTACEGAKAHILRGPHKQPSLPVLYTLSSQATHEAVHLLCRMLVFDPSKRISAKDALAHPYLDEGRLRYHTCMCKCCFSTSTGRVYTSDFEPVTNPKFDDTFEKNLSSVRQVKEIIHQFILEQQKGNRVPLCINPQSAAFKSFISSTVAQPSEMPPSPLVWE
The following applies: read-out: % Enzyme Activity (relative to DMSO controls), NLK.

T8 sequence (Q9HC98 whole entry): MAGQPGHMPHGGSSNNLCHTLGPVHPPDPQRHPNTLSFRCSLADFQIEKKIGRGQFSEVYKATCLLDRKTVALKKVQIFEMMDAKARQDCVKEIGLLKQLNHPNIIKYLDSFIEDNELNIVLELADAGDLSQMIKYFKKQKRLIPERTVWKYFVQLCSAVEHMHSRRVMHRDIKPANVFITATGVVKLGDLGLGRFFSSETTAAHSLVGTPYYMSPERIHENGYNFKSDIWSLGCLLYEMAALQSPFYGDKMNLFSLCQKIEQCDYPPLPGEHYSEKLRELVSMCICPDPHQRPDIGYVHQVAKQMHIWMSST
T10 sequence (Q9P0L2 whole entry): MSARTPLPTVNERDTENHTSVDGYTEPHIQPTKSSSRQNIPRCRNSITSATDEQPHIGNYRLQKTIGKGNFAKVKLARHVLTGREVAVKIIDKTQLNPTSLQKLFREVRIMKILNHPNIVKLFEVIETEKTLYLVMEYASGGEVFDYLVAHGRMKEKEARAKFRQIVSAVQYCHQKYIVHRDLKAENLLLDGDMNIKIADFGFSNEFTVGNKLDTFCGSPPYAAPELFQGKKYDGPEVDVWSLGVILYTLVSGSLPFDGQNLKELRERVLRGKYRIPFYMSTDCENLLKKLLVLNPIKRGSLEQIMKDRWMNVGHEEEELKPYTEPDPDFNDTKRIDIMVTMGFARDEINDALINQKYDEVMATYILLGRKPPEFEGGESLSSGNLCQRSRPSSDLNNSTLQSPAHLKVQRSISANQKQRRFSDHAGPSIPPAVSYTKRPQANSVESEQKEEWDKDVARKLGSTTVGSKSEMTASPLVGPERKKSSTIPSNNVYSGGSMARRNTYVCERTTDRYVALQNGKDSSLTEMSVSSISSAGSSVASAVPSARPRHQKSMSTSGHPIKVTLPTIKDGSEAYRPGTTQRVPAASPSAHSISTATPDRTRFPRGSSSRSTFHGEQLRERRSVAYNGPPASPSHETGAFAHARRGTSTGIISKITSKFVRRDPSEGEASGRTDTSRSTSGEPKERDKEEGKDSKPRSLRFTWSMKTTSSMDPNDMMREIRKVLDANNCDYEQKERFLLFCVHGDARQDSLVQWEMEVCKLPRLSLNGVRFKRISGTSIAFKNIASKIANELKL
T4 sequence (P42684 whole entry): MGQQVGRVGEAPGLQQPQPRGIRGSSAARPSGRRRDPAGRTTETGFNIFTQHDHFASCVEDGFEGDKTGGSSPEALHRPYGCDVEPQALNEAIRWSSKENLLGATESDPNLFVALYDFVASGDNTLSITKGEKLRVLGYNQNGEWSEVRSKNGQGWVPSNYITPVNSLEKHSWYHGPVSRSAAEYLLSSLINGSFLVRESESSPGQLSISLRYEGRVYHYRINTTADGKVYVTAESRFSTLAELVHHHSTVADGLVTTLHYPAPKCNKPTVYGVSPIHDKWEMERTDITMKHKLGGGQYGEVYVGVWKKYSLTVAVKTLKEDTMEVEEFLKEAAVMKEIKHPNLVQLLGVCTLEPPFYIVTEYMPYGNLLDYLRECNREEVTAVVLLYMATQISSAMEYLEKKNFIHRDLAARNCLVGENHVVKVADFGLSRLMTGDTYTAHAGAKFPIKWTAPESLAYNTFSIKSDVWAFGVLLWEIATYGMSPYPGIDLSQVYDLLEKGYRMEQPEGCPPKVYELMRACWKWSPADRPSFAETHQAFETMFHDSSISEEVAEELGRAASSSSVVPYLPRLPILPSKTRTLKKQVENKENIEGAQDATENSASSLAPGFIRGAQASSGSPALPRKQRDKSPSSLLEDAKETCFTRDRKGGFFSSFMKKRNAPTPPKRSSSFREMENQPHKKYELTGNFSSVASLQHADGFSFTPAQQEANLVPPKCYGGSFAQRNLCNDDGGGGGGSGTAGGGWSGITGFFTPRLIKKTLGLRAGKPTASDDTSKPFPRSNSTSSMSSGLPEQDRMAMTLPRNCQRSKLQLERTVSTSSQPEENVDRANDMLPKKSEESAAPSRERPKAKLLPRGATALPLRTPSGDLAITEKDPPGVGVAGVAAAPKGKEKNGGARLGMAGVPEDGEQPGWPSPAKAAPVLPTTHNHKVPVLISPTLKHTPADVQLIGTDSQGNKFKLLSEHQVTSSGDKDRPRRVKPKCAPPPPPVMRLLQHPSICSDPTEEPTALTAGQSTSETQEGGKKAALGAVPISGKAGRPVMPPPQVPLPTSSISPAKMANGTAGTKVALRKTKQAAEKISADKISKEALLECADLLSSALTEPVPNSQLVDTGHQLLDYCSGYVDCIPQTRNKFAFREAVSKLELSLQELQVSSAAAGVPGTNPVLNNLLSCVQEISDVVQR
T6 sequence (Q7KZI7 whole entry): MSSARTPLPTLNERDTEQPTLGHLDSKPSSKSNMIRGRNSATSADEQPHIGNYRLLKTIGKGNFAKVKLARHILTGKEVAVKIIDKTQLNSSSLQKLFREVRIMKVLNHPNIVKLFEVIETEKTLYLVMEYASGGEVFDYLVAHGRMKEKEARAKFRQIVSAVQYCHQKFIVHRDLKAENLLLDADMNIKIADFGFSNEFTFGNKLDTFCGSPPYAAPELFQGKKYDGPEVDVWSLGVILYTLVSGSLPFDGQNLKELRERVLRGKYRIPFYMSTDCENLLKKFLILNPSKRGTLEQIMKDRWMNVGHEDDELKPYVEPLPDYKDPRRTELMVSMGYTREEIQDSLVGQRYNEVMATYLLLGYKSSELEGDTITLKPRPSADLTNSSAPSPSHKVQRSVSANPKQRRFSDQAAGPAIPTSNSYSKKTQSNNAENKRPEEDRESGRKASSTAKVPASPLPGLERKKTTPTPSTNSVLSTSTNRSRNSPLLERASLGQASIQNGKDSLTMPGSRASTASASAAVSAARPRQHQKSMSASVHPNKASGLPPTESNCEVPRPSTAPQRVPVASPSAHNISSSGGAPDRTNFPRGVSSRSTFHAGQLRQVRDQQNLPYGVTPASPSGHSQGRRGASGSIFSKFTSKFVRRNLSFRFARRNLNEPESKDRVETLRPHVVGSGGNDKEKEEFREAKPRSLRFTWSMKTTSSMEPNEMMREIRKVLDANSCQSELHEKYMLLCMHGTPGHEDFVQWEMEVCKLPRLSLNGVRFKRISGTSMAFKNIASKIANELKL
T2 sequence (O96013 whole entry): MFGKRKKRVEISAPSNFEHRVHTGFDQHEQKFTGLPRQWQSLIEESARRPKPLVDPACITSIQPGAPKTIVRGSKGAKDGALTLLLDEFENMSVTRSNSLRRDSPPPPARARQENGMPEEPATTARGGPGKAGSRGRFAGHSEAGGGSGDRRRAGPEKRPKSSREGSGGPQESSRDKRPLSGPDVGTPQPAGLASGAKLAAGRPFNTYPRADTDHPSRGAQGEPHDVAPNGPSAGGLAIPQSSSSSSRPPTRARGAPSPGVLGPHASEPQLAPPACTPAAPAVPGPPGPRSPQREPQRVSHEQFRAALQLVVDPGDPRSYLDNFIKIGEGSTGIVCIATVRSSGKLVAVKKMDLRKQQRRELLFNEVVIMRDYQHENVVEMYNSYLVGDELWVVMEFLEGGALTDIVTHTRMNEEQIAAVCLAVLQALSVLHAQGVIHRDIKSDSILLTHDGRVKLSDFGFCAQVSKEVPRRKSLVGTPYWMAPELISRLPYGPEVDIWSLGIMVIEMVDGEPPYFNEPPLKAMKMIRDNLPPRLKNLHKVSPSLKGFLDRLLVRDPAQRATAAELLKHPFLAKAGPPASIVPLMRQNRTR
T5 sequence (P80192 whole entry): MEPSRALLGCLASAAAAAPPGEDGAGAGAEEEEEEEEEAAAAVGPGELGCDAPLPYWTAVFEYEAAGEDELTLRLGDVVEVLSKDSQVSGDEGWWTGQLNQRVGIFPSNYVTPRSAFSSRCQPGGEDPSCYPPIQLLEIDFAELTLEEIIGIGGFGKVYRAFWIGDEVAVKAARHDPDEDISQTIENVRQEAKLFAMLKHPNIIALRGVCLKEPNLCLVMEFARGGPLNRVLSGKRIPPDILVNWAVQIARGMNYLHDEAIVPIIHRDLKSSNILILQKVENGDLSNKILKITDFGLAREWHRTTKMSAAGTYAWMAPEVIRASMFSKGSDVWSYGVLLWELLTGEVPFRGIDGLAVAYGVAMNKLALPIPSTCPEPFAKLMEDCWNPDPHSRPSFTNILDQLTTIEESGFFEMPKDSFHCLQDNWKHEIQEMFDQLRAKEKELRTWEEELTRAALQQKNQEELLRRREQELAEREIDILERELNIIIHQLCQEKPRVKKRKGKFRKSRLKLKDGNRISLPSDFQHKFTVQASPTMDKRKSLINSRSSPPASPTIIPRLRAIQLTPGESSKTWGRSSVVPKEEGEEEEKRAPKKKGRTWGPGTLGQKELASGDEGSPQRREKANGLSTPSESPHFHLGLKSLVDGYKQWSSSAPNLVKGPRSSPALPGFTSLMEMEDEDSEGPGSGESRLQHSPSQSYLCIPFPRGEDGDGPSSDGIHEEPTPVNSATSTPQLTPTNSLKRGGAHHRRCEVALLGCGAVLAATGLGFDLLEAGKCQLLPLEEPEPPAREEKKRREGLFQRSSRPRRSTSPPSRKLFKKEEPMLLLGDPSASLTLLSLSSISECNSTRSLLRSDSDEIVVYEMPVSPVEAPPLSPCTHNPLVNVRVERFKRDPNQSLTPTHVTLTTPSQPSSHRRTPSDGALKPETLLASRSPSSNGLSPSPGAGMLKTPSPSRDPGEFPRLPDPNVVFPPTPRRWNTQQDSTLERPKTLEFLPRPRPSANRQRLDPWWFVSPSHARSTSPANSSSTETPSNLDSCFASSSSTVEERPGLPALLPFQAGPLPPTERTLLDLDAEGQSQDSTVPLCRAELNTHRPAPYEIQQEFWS

For `O=C(Nc1cnn(-c2csc(C(=O)NC3COC3)c2)c1)Nc1ccccc1Cl` [Compound 17, 4-(4-(3-(2-chlorophenyl)ureido)-1H-pyrazol-1-yl)-N-(oxetan-3-yl)thiophene-2-carboxamide], the remaining activity at 5 µM in test [1] is 94.5%; in test [2] it was 98.9%; in test [3], 102%; in [4], 92.7%; in test [5], 95.1%; in test [6], 104%. Also, the remaining activity at 5 µM stood at 88.2% in test [7]; 103% in [8]; 99% in test [9]; 96.3% in [10]; 99.5% in test [11].
In the case of `O=C(Nc1cnn(-c2csc(C(=O)NC3COC3)c2)c1)Nc1c(F)cccc1Cl` [Compound 25, 4-(4-(3-(2-chloro-6-fluorophenyl)ureido)-1H-pyrazol-1-yl)-N-(oxetan-3-yl)thiophene-2-carboxamide], the remaining activity at 5 µM in test [1] turned out to be 86.8%; in test [2], 107%; in test [3], 100%; in [4], 88.7%; in [5], 88.5%; in test [6], 90.7%. Further, the remaining activity at 5 µM in test [7] came out at 93.6%; in test [8] it was 87.2%; in test [9], 102%; in [10], 108%; in [11], 87.4%.
Consider `Cc1sc(C(=O)NC2COC2)cc1-n1cc(NC(=O)Nc2c(F)cccc2Cl)cn1` [Compound 27, 4-(4-(3-(2-chloro-6-fluorophenyl)ureido)-1H-pyrazol-1-yl)-5-methyl-N-(oxetan-3-yl)thiophene-2-carboxamide], for which the remaining activity at 10 µM in test [1] (10 uM) stood at 103%; in test [2] (10 uM) it was 106%; in test [3] (10 uM) it was 111%; in test [4] (10 uM), 123%; in test [5] (10 uM), 87.5%; in test [6] (10 uM), 99.8%. Further, the remaining activity at 10 µM in test [7] (10 uM) turned out to be 96.3%; in test [8] (10 uM), 93.3%; in test [9] (10 uM), 101%; in test [10] (10 uM) it was 95.3%; in test [11] (10 uM), 85.2%.

The record behind these values is patent publication US20240246942A1, “KINASE INHIBITORS FOR THE TREATMENT OF NEURODEGENERATIVE DISEASES” (priority 2020, published 2024).
